The source of these data is publication PMC10321319 (Nature, 2022).

In series [1] the test system is E. cloacae ATCC13047 (ΔphoP/Q). The conditions noted are these: n=2.
The subject of series [2] is E. cloacae ATCC13047 (ΔphoP/Q+phoP/Q). The conditions noted are these: for MIC: n=2; for Fold increase in MIC: E. cloacae ATCC13047 upon introduction of phoP/Q; for susceptibility of strain: E. cloacae phoP/Q deletion rescued with phoP/Q plasmid.
Series [3] deals with K. pneumoniae 0497 (mcr-1). The conditions noted are these: n=2.
The test system of series [4] is K. pneumoniae ATCC13883 (pMQ124-mcr-1). Particulars: for MIC: n=2; for Fold increase in MIC: K. pneumoniae 13883 upon introduction of mcr-1.
In the next series the test system is E. faecium Com15. Description: MIC, microbial susceptibility assay. Format: cell-based. The conditions noted are these: n=2.
The next series concerns P. aeruginosa PA01. The series is described as follows: MIC, microbial susceptibility assay. Format: cell-based, Pseudomonas aeruginosa. The conditions noted are these: n=2.
The test system of another series is S. aureus SH1000. The series is described as follows: MIC, microbial susceptibility assay. It is filed as cell-based. Particulars: n=2.
The test system of a further series is K. pneumoniae 10031. Particulars: n=2.
The subject of series [5] is A. baumannii SM1536 (pMQ124xlab1-mcr-1). The series is described as follows: MIC, microbial susceptibility assay. It is filed as cell-based, Acinetobacter baumannii. The conditions noted are these: for MIC: A. baumannii SM1536 (pMQ124xlab1-mcr-1), n=2.
Series [6] concerns pairs of colistin sensitive and resistant strains of K. pneumoniae and A. baumannii (mcr-1 plasmid). Format: cell-based.
The test system of series [7] is S. typhimurium 0635 (mcr-1). The series is described as follows: MIC, microbial susceptibility assay. Format: cell-based. Particulars: S. typhimurium 0635, mcr-1 clinical isolate; n=2.
The test system of another series is E. cloacae 0150. Description: MIC, microbial susceptibility assay. Particulars: n=2. It is filed as cell-based, Enterobacter cloacae.
For another series, the system named is K. pneumoniae ATCC13883. The conditions noted are these: n=2.
The next series deals with P. vulgaris 49132. Particulars: Proteus vulgaris, intrinsically colistin resistant (L-Ara4N).
Series [8] deals with A. baumannii ATCC17978 (pMQ124xlab1-mcr-1). The series is described as follows: MIC, microbial susceptibility assay. The conditions noted are these: n=2. Format: cell-based, Acinetobacter baumannii.
For series [9], the system named is A. baumannii ATCC17978. Description: MIC, microbial susceptibility assay. The conditions noted are these: n=2. Format: cell-based, Acinetobacter baumannii.
The test system of another series is HT29 cells. Description: MTT cytotoxicity assay. Format: cell-based, human. Particulars: 48 h incubation.
A further series has as its system A. baumannii 0286. The series is described as follows: MIC, microbial susceptibility assay. Format: cell-based, Acinetobacter baumannii. Particulars: XDR A. baumannii 0286, mcr-1 −.
In another series the test system is A. baumannii 0282. Description: MIC, microbial susceptibility assay. Format: cell-based, Acinetobacter baumannii. Particulars: XDR A. baumannii 0282, mcr-1 −.
Series [10] has as its system A. baumannii 0295 (mcr-1 +). The series is described as follows: MIC, microbial susceptibility assay. It is filed as cell-based, Acinetobacter baumannii. The conditions noted are these: XDR A. baumannii 0295, mcr-1 +.
The next series concerns A. baumannii 0296. The series is described as follows: MIC, microbial susceptibility assay. Format: cell-based, Acinetobacter baumannii. Particulars: XDR A. baumannii 0296, mcr-1 −.
Series [11] can be described thus: Pharmacokinetics assessment, plasma. It is filed as in vivo. Particulars: mice, single subcutaneous dose 10 mg/kg.
In the next series the test system is A. baumannii 0301. Particulars: lipid analog table.
The test system of a further series is A. baumannii 0287. Description: MIC, microbial susceptibility assay. Particulars: XDR A. baumannii 0287, mcr-1 −. Format: cell-based, Acinetobacter baumannii.
Series [12] relates to A. baumannii 0287 (mcr-1 +). The series is described as follows: MIC, microbial susceptibility assay. The conditions noted are these: XDR A. baumannii 0287, mcr-1 +. Format: cell-based, Acinetobacter baumannii.
Series [13] relates to A. baumannii 0301 (mcr-1). Description: MIC, microbial susceptibility assay. It is filed as cell-based, Acinetobacter baumannii.
In the next series the test system is M. osloensis 10973. Particulars: eptA intrinsic resistance.
For a further series, the system named is A. baumannii 0295. The series is described as follows: MIC, microbial susceptibility assay. Particulars: XDR A. baumannii 0295, mcr-1 −. It is filed as cell-based, Acinetobacter baumannii.
Series [14] concerns A. baumannii ATCC17978. The series is described as follows: CHIR-090 inhibition assay, growth curves. It is filed as cell-based, Acinetobacter baumannii.
A further series relates to A. baumannii-0301-mcr-1. The series is described as follows: Neutropenic thigh infection model. The conditions noted are these: neutropenic mice, 20 mg/kg subcutaneous, 24 h. Format: in vivo, Acinetobacter baumannii.
The test system of another series is N. meningitidis 13090. Particulars: eptA intrinsic resistance.
The test system of series [15] is A. baumannii-SM1536-mcr-1. Description: Neutropenic thigh infection model. It is filed as in vivo, Acinetobacter baumannii. Particulars: neutropenic mice, 20 mg/kg subcutaneous, 24 h.
Where [16] appears, read: E. cloacae ATCC13047 (ΔphoP/Q+phoP/Q).
The mark [17] stands for this setting: K. pneumoniae 0497, mcr-1 clinical isolate.
The mark [18] stands for this setting: K. pneumoniae ATCC13883 (pMQ124-mcr-1).
[19] abbreviates: A. baumannii 17978, ESKAPE panel.
Setting [20] is: A. baumannii ATCC17978, mcr-1 engineered pairs.

Values after ≈ are worked out from the molar mass of the structure shown. Read-outs that look alike come from different tables or passages of the source. Positions of bridges follow the written chain, without caps; N, C: chain ends. Non-standard residues stand in square brackets, D forms with d. Residues, ends and D or L forms follow the SMILES beside them. *: point of attachment. X1 = CC[C@H](C)CCCCC(=O)*; Dab = NCC[C@H](N)C(=O)O

Take `CC[C@H](C)CCCCC(=O)N[C@@H](CCN)C(=O)N[C@H](C(=O)N[C@H](CO)C(=O)N[C@H]1CCNC(=O)[C@H]([C@@H](C)O)NC(=O)[C@H](CCN)NC(=O)[C@H](CCN)NC(=O)[C@H]([C@@H](C)CC)NC(=O)[C@@H](CC(C)C)NC(=O)[C@H](CCN)NC1=O)[C@@H](C)O` [Macolacin-10Thr] (X1-[Dab]T[dS][Dab][Dab][dL]I[Dab][Dab]T; lactam 4-C): the MIC was determined as 1 µg/mL (≈ 0.865 µM) in series [1] (E. cloacae ATCC13047 (Δ phoP/Q), SAR table); 16 µg/mL (≈ 13.8 µM) in series [2] (E. cloacae ATCC13047 (Δ phoP/Q+phoP/Q), SAR table); 8 µg/mL (≈ 6.92 µM) in series [3] (K. pneumoniae 0497 (mcr-1), SAR table); 64 µg/mL (≈ 55.3 µM) in [4] (K. pneumoniae 13883 (mcr-1), SAR table). Besides, the entries for the “Fold increase in MIC” value in [2] and in [4] were 16 and 64, respectively.

Polymyxin B: the MIC against E. faecium Com15 was greater than 128 µg/mL; in the series on P. aeruginosa PA01, 2 µg/mL; in the series on S. aureus SH1000, greater than 128 µg/mL; in the series with K. pneumoniae 10031 it was 1 µg/mL; in series [1] (E. cloacae ATCC13047 (ΔphoP/Q)), 1 µg/mL; against A. baumannii SM1536 (n=2), 1 µg/mL. The MIC in series [2] (setting [16]) was determined as 32 µg/mL; in [5] it was 128 µg/mL; in series [3] (setting [17]) it was 32 µg/mL; in series [7], 16 µg/mL; in [4] (setting [18]), 128 µg/mL; in the series on E. cloacae 0150 it was 1 µg/mL. In addition, the MIC is 1 µg/mL against K. pneumoniae ATCC13883; greater than 128 µg/mL with P. vulgaris 49132; 16 µg/mL in [8]; 0.5 µg/mL in the series with A. baumannii ATCC17978 [9] (setting [19]); 0.5 µg/mL in the series with A. baumannii ATCC17978 [9] (setting [20]). Also, the “Fold increase in MIC” value in series [2] stood at 32; in series [4] it was 128. Further, in series [2], the “susceptibility of strain” value is “resistant”. For the same compound, the “increase in MIC upon mcr-1 expression” value in [6] was no less than 32 fold.

On to colistin, for which the “cytotoxicity to human cells, IC50” value in the series on HT29 cells was greater than 512 µg/mL. Besides, the MIC was greater than 128 µg/mL in the series on E. faecium Com15; 1 µg/mL against P. aeruginosa PA01; 1 µg/mL with A. baumannii 0286; greater than 128 µg/mL in the series on S. aureus SH1000; 0.5 µg/mL against K. pneumoniae 10031; 1 µg/mL in series [1] (E. cloacae ATCC13047 (ΔphoP/Q)). The MIC in the series on A. baumannii SM1536 (lipid analog table) was 0.5 µg/mL; against A. baumannii SM1536 (n=2), 0.5 µg/mL; in [2] (setting [16]) it was 32 µg/mL; in the series with A. baumannii 0282, 0.5 µg/mL; in [5] it was 128 µg/mL; in series [10] it was greater than 128 µg/mL. Moreover, the MIC against A. baumannii 0296 was 0.25 µg/mL; in [3] (setting [17]), 32 µg/mL; in the series on N. gonorrhoeae 49226, greater than 128 µg/mL; in the series on A. baumannii 0301, 0.25 µg/mL; in the series on A. baumannii 0287 it was 0.5 µg/mL; in [12], 64 µg/mL. The MIC is 16 µg/mL in series [7]; greater than 128 µg/mL in series [13] (A. baumannii 0301 (mcr-1), lipid analog table); greater than 64 µg/mL in series [13] (A. baumannii-0301 transformed with mcr-1 (PDR strain)); 64 µg/mL in [4] (setting [18]); 8 µg/mL with M. osloensis 10973; 0.25 µg/mL against A. baumannii 0295. Also, the MIC with E. cloacae 0150 was 1 µg/mL; in the series with K. pneumoniae ATCC13883 it was 1 µg/mL; with P. vulgaris 49132, greater than 128 µg/mL; against N. meningitidis 13090, 128 µg/mL; in series [8] it was 32 µg/mL; in the series with A. baumannii ATCC17978 [9] (setting [19]), 1 µg/mL. In the series on A. baumannii ATCC17978 [9] (setting [20]), this compound yielded an MIC of 1 µg/mL. Further, the “Fold increase in MIC” value in series [2] is 32; in series [5] (A. baumannii SM1536 upon introduction of mcr-1) it was 256; in series [13] (A. baumannii 0301 upon introduction of mcr-1), greater than 512; in series [4], 64. Besides, the “susceptibility of strain” value in series [2] was “resistant”. For the same compound, the “plasma drug exposure (pharmacokinetic profile)” value in series [11] is “parity in plasma drug exposure”. In addition, the “increase in MIC upon mcr-1 expression” value in [6] is reported as no less than 32 fold. In the series on A. baumannii ATCC17978 [14] (antibiotic at 10x MIC with LpxC inhibitor CHIR-090, 48 h), the “A. baumannii growth with antibiotic plus CHIR-090” value is on record as “rescued A. baumannii growth”. For the same compound, the “A. baumannii growth with antibiotic alone” value with A. baumannii ATCC17978 [14] (concentrations above MIC (10x MIC), 48 h) is given as “completely abrogated A. baumannii growth”. In addition, the “bacterial burden in thigh relative to initial infection” value (in the series with A. baumannii-0301-mcr-1; in series [15]) was “did not reduce the bacterial burden below the level of the initial infection” each time.
